US10383848B2, “Indole-based therapeutics” (Creighton University, priority 2016, dated 2019)
Converted amounts (≈) assume the structure as drawn. Where two headings read alike, the source gives them in different places.

Key:
[1] = test system: THP-1 cells; test: Cytotoxicity assay, THP-1 cell viability (CellTiter-Glo); assay type: cell-based, human; conditions: 3 days
Method: The cytotoxicity of compounds was determined by measuring THP-1 cell viability after 3 days in the presence of test compounds. Compounds were prepared as 10-point serial dilutions in DMSO. The highest concentration of compound tested was 50 μM where compounds were soluble in DMSO at 10 mM. THP-1 cells were cultured in complete RPMI and differentiated into macrophage-like cells using 80 nM PMA overnight at 37° C., 5% CO2. Cells were inoculated into assay plates and cultured for 24 h before compound dilutions were added to a final DMSO concentration of 0.5%. Each run included staurosporine as a control. Assay plates were incubated for 3 days at 37° C., 5% CO2, growth was measured using the CellTiter-Glo® Luminescent Cell Viability Assay (Promega) which uses ATP as an indicator of cell viability. Relative luminescent units (RLU) were measured using a Biotek Synergy 4 plate reader. The dose response curve was fitted using the Levenberg-Marquardt algorithm.

[2] = test system: P. aeruginosa PAO-1; test: MIC, resazurin microtiter assay; assay type: cell-based, Pseudomonas aeruginosa
[3] = test system: M. abscessus 103; test: Acute SCID mouse infection efficacy model
[4] = test system: M. abscessus DCI #21; test: MIC, resazurin microtiter assay; assay type: cell-based
[5] = test system: S. aureus ATCC25923; test: MIC, resazurin microtiter assay; assay type: cell-based; conditions: Staphylococcus aureus, ATCC25923, read-out: MIC S. aureus ATCC25923
[6] = test system: M. xenopi WT; test: MIC, resazurin microtiter assay; assay type: cell-based; conditions: Mycobacterium xenopi, read-out: MIC M. xenopi WT
[7] = test system: M. massiliense CIP 108297; test: MIC, resazurin microtiter assay; assay type: cell-based; conditions: Mycobacteroides abscessus, CIP108297, read-out: MIC M. massiliense CIP 108297
[8] = test system: M. tuberculosis H37Rv mc^26206; test: microbe, parasite or virus in culture; assay type: cell-based
[9] = test system: M. massiliense strain 1513; test: Metabolic labeling and mycolic acid analysis; conditions: 4x and 10x MIC, 16 hr, [1,2-14C]acetate labeling, TLC
Method: Cultures of M. massiliense 1513 grown to mid log-phase in Mueller-Hinton II broth were incubated with different concentrations of inhibitors for 16 hr at 37° C. with shaking. 0.5 μCi/mL [1,2-^14C]acetic acid (specific activity, 52 Ci/mol, PerkinElmer Inc.) was added at the same time as the inhibitors. Total lipids and cell wall-bound mycolic acid methyl esters were prepared from treated and untreated cells and analyzed by TLC as described in Grzegorzewicz et al, Nature Chemical Biology, 2012, 8:334+341.

[10] = test system: M. abscessus ATCC 19977; test: MIC, resazurin microtiter assay; assay type: cell-based; conditions: Mycobacteroides abscessus, ATCC19977, read-out: MIC M. abscessus ATCC 19977
[11] = test system: M. abscessus 103; test: MIC/MBC by microbroth dilution (MH or 7H9 broth); assay type: cell-based, M. abscessus subsp. bolletii
[12] = test system: M. bolletii ATCC 14472; test: MIC, resazurin microtiter assay; assay type: cell-based
[13] = test system: M. avium 104; test: MIC, resazurin microtiter assay; assay type: cell-based; conditions: Mycobacterium avium, 104, read-out: MIC M. avium 104
[14] = test system: M. smegmatis mc^2155; test: MIC, resazurin microtiter assay; assay type: cell-based; conditions: Mycolicibacterium smegmatis, MC^2155, read-out: MIC M. smeg. mc^2155
[15] = test system: M. chelonae ATCC 35752; test: MIC, resazurin microtiter assay; assay type: cell-based; conditions: Mycobacteroides chelonae, ATCC35752, read-out: MIC M. chelonae ATCC 35752
[16] = test system: M. intracellulare 1956; test: MIC, resazurin microtiter assay; assay type: cell-based; conditions: read-out: MIC M. avium Intracellulare 1956
[17] = test system: M. abscessus 1513; test: MIC/MBC by microbroth dilution (MH or 7H9 broth); assay type: cell-based, M. abscessus subsp. abscessus
[18] = test system: M. massiliense CRM 0019; test: MIC, resazurin microtiter assay; assay type: cell-based
[19] = In vivo acute toxicity assay (Maximum Tolerated Dose); parameters: species or system Balb/C mice; conditions: 100, 200 and 300 mg/kg for 3 consecutive days of dosing, gavage, mice
Method: 6-8 week old Balb/C female mice were ordered from Charles River. Mice were rested one to two weeks before dosing. For each dose of compound, 3 mice were utilized. […] Compound was given twice per day for 3 consecutive days by gavage, at 100 μl/mouse. Compounds were prepared the day before or the day of dosing and stored at 4° C. until dosing. The time of dosing was recorded for each mouse. Observations were recorded immediately, at 10 min, 1 hour, 2 hours, 4 hours, and 24 hours after dosing. […] Mice were dosed for three days and on the fourth day mice were observed twice daily for two days, then once daily for five days.
As an initial in vivo study, the safety of compounds and preliminary pharmacokinetics was assessed in an acute toxicity mouse model (Maximum Tolerated Dose assay, MTD) to evaluate any potential adverse effects and determine a safe dose for mouse efficacy studies. Compounds were tested to ensure safe use in healthy mice prior to any further in vivo testing. […] Novel compounds were generally administered to mice at 40, 75 and 100 mg/kg in a tested formulation, administered on three consecutive days, 3 mice per dose group, in the chosen formulation. […] Mice were observed 10 min, 1, 2, 4 hours after dosing and then daily afterwards. During the observations, humane handling practices and animal welfare regulations were strictly followed. […]

[20] = SCID mice i.v. infected with M. abscessus 103, compounds 300 mg/kg PO in 20% cyclodextrin, AMI 150 mg/kg SQ, once daily 8 days
[21] = infected SCID mice, daily 300 mg/kg in 20% cyclodextrin

## O=C(NC12CC3CC(CC(C3)C1)C2)c1cc2ccccc2[nH]1 [Compound 5, N-(1-adamantyl)-1H-indole-2-carboxamide]
[1]
  TD50: >14.7 µg/mL
[2]; Mueller Hinton II
  MIC P. aeruginosa PAO-1: inactive
[2]; Pseudomonas aeruginosa, PAO1, read-out: MIC P. aeruginosa PAO-1
  MIC: > 160 µg/mL
[3]; [20]
  log10 CFU liver counts on day 12: 5.30±0.23 log10 CFU
  log10 CFU spleen counts on day 12: 3.79±0.40 log10 CFU
[3]; [21]
  Survival until the Day 12 endpoint: all animals survived
  Weight loss: didn't demonstrate any significant weight loss
[4]; Mycobacteroides abscessus, read-out: MIC M. abscessus DCI #21
  MIC: 0.25 µg/mL (≈ 0.849 µM)
[4]; TD50 in THP-1 cells
  Selectivity Index (TD50/MIC) M. abscessus DCI #21: >58
[5]
  MIC: > 160 µg/mL
[6]
  MIC: 0.5 to 1 µg/mL (≈ 1.7 to 3.4 µM)
[7]
  MIC: 0.5 µg/mL (≈ 1.7 µM)
[8]; Mycobacterium tuberculosis, H37RV, read-out: MIC M. tb H37 Rv (mc2-6206)
  MIC: 0.2 µg/mL (≈ 0.679 µM)
[8]; TD50 in THP-1 cells
  Selectivity Index (TD50/MIC) M. tb H37Rv: >73
[9]
  TMM build-up and mycolic acid transfer onto arabinogalactan and TDM: concentration-dependent build-up of TMM
[10]
  MIC: 0.25 µg/mL (≈ 0.849 µM)
[11]; Mycobacteroides abscessus, 103, read-out: MIC M. abscessus 103, 7H9 Broth
  MIC: > 64 µg/mL
[11]; Mycobacteroides abscessus, 103, read-out: MIC M. abscessus 103, MH Broth
  MIC: 16 µg/mL (≈ 54.3 µM)
[12]; Mycobacteroides abscessus, ATCC14472, read-out: MIC M. bolletii ATCC 14472
  MIC: 0.25 µg/mL (≈ 0.849 µM)
[12]; TD50 in THP-1 cells
  Selectivity Index (TD50/MIC) M. bolletii: >58
[13]
  MIC: 8 µg/mL (≈ 27.2 µM)
[14]
  MIC: 1.56 µg/mL (≈ 5.3 µM)
[15]
  MIC: 0.25 µg/mL (≈ 0.849 µM)
[16]
  MIC: 8 µg/mL (≈ 27.2 µM)
[17]; Mycobacteroides abscessus, 1513, read-out: MIC M. abscessus 1513, 7H9 Broth
  MIC: > 64 µg/mL
[17]; Mycobacteroides abscessus, 1513, read-out: MIC M. abscessus 1513, MH Broth
  MIC: 32 µg/mL (≈ 109 µM)
[18]; Mycobacteroides abscessus, CRM0019, read-out: MIC M. massiliense CRM 0019
  MIC: 0.25 µg/mL (≈ 0.849 µM)
[18]; TD50 in THP-1 cells
  Selectivity Index (TD50/MIC) M. Massiliense CRM0019: >58
[19]
  Tolerability (acute toxicity, MTD): well tolerated
